Measured values as given in ChEMBL document CHEMBL1201862, “PubChem BioAssay data set” (2004).
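96-well plates; 48 h exposure; 5 concentrations. Endpoints by linear interpolation between flanking doses. Not reached: highest tested concentration assigned. GI50 marks 50% less growth.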 Calls of active or inactive are those of the source. No stated cut-off is given here; in the data, active = GI50 up to about 1.1 µM and inactive = higher.

Columns and labels:
Test in all cases: NCI tumour cell line growth inhibition, 48 h
[1] = system: HOP-62
[2] = system: SN12C
[3] = system: IGROV-1
[4] = system: A549
[5] = system: CAKI-1
[6] = system: SK-OV-3
[7] = system: EKVX
[8] = system: T47D
[9] = system: RXF 393
[10] = system: UACC-257
[11] = system: M14
[12] = system: MCF7
[13] = system: SNB-75
[14] = system: MDA-MB-435
[15] = system: MDA-N
[16] = system: UACC-62
[17] = system: UO-31
[18] = system: SF-539
[19] = system: NCI-H23
[20] = system: HCC 2998

Measured: GI50

CC1CCCC2=C1C(c1ccc(Cl)cc1)n1c(s/c(=C\c3ccc(Cl)cc3)c1=O)=N2 (stereo not given)
inactive: [1] > 100 µM | [2] > 100 µM | [3] > 100 µM | [4] > 100 µM | [5] > 100 µM | [6] > 100 µM | [7] > 100 µM | [8] > 100 µM | [9] > 100 µM | [10] > 100 µM | [11] > 100 µM | [12] > 100 µM | [13] > 100 µM | [14] > 100 µM | [15] > 100 µM | [16] > 100 µM | [17] > 100 µM

CC(C)(C)[Si](C)(C)Oc1ccc(C2CNC(=O)C23CCC(=O)N3Cc2ccccc2)cc1 (stereo not given)
inactive: [1] 20.5 µM | [2] 15 µM | [3] 15.3 µM | [4] 10 µM | [5] 19.7 µM | [6] 15.5 µM | [18] 16.7 µM | [7] 6.68 µM | [8] 15.9 µM | [9] 10.7 µM | [10] 12.4 µM | [11] 16.4 µM | [12] 4.54 µM | [13] 17.8 µM | [14] 12.4 µM | [19] 11.4 µM | [15] 13.3 µM | [16] 15.2 µM | [17] 16 µM

CCOC(=O)C1(C(=O)OCC)C[C@]23OCCC(=O)[C@H]2[C@H]2C(=O)OC(C)(C)O[C@]23C1
inactive: [1] > 100 µM | [2] > 100 µM | [3] > 100 µM | [4] > 100 µM | [5] > 100 µM | [18] > 100 µM | [7] > 100 µM | [8] > 100 µM | [10] > 100 µM | [11] > 100 µM | [12] > 100 µM | [13] > 100 µM | [14] > 100 µM | [20] > 100 µM | [19] > 100 µM | [15] > 100 µM | [16] > 100 µM | [17] > 100 µM

CCCCc1ccc(Nc2nc(N)c3[nH]cnc3n2)cc1
inactive: [2] 13.9 µM | [3] 12.1 µM | [4] 21.3 µM | [5] 15.5 µM | [6] 20.8 µM | [18] 18.8 µM | [7] 19.6 µM | [8] 35.1 µM | [10] 26.5 µM | [11] 31.2 µM | [12] 18.4 µM | [14] 21.5 µM | [20] 24 µM | [19] 17.1 µM | [15] 16.9 µM | [16] 17.2 µM | [17] 12.7 µM

COC(=O)C(CSSC[C@H](N/C(C)=C/C(C)=O)C(=O)OC)N/C(C)=C/C(C)=O (stereo not given in full)
inactive: [1] 57.9 µM | [2] 48.8 µM | [3] 36.7 µM | [4] 99.8 µM | [5] 17.3 µM | [6] > 100 µM | [18] 53 µM | [7] 16.4 µM | [8] 16.6 µM | [9] 15.1 µM | [10] 32.7 µM | [11] 30.8 µM | [12] 26.9 µM | [13] 71.4 µM | [14] 74.5 µM | [19] > 100 µM | [15] 52.8 µM | [16] 64.4 µM | [17] 47.5 µM

Nc1n[n+]([O-])c2cnccc2[n+]1[O-]
inactive: [1] > 100 µM | [2] 44.2 µM | [3] 37.2 µM | [4] 33.9 µM | [5] > 100 µM | [6] > 100 µM | [18] 47.9 µM | [8] 59.7 µM | [10] 24 µM | [11] 22.3 µM | [12] > 10 µM | [13] > 100 µM | [14] 21.4 µM | [20] > 100 µM | [19] 42.2 µM | [15] 20.7 µM | [16] 30.1 µM | [17] > 100 µM

CC(C)(C)N(Cc1ccc2c(c1)OCO2)C(=O)/C=C\Sc1ccccc1
inactive: [1] > 100 µM | [2] > 100 µM | [3] 83.2 µM | [4] 47 µM | [5] > 100 µM | [6] > 100 µM | [18] > 100 µM | [7] 60.8 µM | [8] 21.4 µM | [10] 71.1 µM | [11] 77.1 µM | [12] 51.8 µM | [14] 25.8 µM | [20] 97.1 µM | [19] > 100 µM | [15] 19.5 µM | [16] > 100 µM | [17] 43 µM

CC1(CC(=O)O)OC2CCCCCC2O1.NCc1ccccc1 (stereo not given)
inactive: [1] > 100 µM | [2] > 100 µM | [3] > 100 µM | [4] > 100 µM | [5] > 100 µM | [6] > 100 µM | [18] > 100 µM | [7] 20.2 µM | [8] 92.9 µM | [9] > 100 µM | [10] 53.5 µM | [11] > 100 µM | [12] > 100 µM | [13] 99.3 µM | [14] > 100 µM | [19] > 100 µM | [15] 73.8 µM | [16] > 100 µM | [17] > 100 µM

CC(C)(C)NC(=O)/C(=C\Sc1ccccc1)c1ccc2c(c1)OCO2
inactive: [1] 44.3 µM | [2] 26.7 µM | [3] 29.2 µM | [4] 31 µM | [5] 38.4 µM | [6] 52.5 µM | [18] 35.3 µM | [7] 28.4 µM | [8] 26 µM | [10] 25.4 µM | [11] 21.8 µM | [12] 26.1 µM | [14] 22.2 µM | [20] 37.3 µM | [19] 35.3 µM | [15] 22.8 µM | [16] 19.8 µM | [17] 26.9 µM

COc1ccc(Oc2cccc(C3C4C(=O)N(c5ccc(C)c(Cl)c5)C(=O)C4ON3C(C(N)=O)c3ccccc3)c2)cc1 (stereo not given)
inactive: [1] 35.2 µM | [2] 12.4 µM | [3] 18.8 µM | [4] 20.9 µM | [5] 21 µM | [6] > 50 µM | [18] 10.4 µM | [7] 10.4 µM | [8] 9.23 µM | [9] 7.6 µM | [10] 10.7 µM | [11] 13.1 µM | [12] 15.3 µM | [13] 6.08 µM | [14] 15.5 µM | [19] 8.55 µM | [15] 10.4 µM | [16] 10.9 µM | [17] 29.6 µM

C#CCOC(=O)C(N)CCSC (stereo not given)
inactive: [1] > 100 µM | [2] > 100 µM | [3] > 100 µM | [4] > 100 µM | [5] > 100 µM | [6] > 100 µM | [7] > 100 µM | [8] > 100 µM | [9] > 100 µM | [10] > 100 µM | [11] > 100 µM | [12] > 100 µM | [13] > 100 µM | [14] > 100 µM | [19] > 100 µM | [15] > 100 µM | [16] > 100 µM | [17] > 100 µM
